Data as given in US10173982B2, “Picolinamides as fungicides” (Dow AgroSciences LLC, priority 2016, dated 2019).
Read-outs that look alike come from different tables or passages of the source.

Experiments:
Format in all cases: in vivo
Puccinia triticina = assay: Fungicidal activity: wheat brown rust (PUCCRT), percent disease control on wheat seedlings; settings: Puccinia triticina, LV (low volume) activity at 121.5 g/H
Method: Technical grades of materials were dissolved in acetone, which were then mixed with nine volumes of water containing 110 ppm Triton X-100. The fungicide solutions were applied onto wheat seedlings using an automated booth sprayer to run-off. All sprayed plants were allowed to air dry prior to further handling. All fungicides were evaluated using the aforementioned method for their activity vs. all target diseases, unless stated otherwise. Wheat leaf blotch and brown rust activity were also evaluated using track spray applications, in which case the fungicides were formulated as EC formulations, containing 0.1% Trycol 5941 in the spray solutions. Wheat plants (variety Yuma) were grown from seed in a greenhouse in 50% mineral soil/50% soil-less Metro mix until the first leaf was fully emerged, with 7-10 seedlings per pot. These plants were inoculated with an aqueous spore suspension of Puccinia triticina either prior to or after fungicide treatments. After inoculation the plants were kept in a dark dew room at 22° C. with 100% relative humidity overnight to permit spores to germinate and infect the leaf. The plants were then transferred to a greenhouse set at 24° C. for disease to develop. Fungicide formulation, application and disease assessment followed the procedures as described in the Example A. Results of the evaluations are shown below in Table 4.

Zymoseptoria tritici = assay: Fungicidal activity: leaf blotch of wheat (SEPTTR), percent disease control on wheat seedlings; settings: Zymoseptoria tritici, LV (low volume) activity at 121.5 g/H
Method: Technical grades of materials were dissolved in acetone, which were then mixed with nine volumes of water containing 110 ppm Triton X-100. The fungicide solutions were applied onto wheat seedlings using an automated booth sprayer to run-off. All sprayed plants were allowed to air dry prior to further handling. All fungicides were evaluated using the aforementioned method for their activity vs. all target diseases, unless stated otherwise. Wheat leaf blotch and brown rust activity were also evaluated using track spray applications, in which case the fungicides were formulated as EC formulations, containing 0.1% Trycol 5941 in the spray solutions. Wheat plants (variety Yuma) were grown from seed in a greenhouse in 50% mineral soil/50% soil-less Metro mix until the first leaf was fully emerged, with 7-10 seedlings per pot. These plants were inoculated with an aqueous spore suspension of Zymoseptoria tritici either prior to or after fungicide treatments. After inoculation the plants were kept in 100% relative humidity (one day in a dark dew chamber followed by two to three days in a lighted dew chamber at 20° C.) to permit spores to germinate and infect the leaf. The plants were then transferred to a greenhouse set at 20° C. for disease to develop. When disease symptoms were fully expressed on the 1st leaves of untreated plants, infection levels were assessed on a scale of 0 to 100 percent disease severity. Percent disease control was calculated using the ratio of disease severity on treated plants relative to untreated plants.

Phakopsora pachyrhizi = assay: Fungicidal activity: Asian soybean rust (PHAKPA), disease control on soybean seedlings; settings: High volume at 25 ppm
Method: Technical grades of materials were dissolved in acetone, which were then mixed with nine volumes of water containing 0.011% Tween 20. The fungicide solutions were applied onto soybean seedlings using an automated booth sprayer to run-off. All sprayed plants were allowed to air dry prior to further handling.
Soybean plants (variety Williams 82) were grown in soil-less Metro mix, with one plant per pot. Two weeks old seedlings were used for testing. Plants were inoculated either 3 days prior to or 1 day after fungicide treatments. Plants were incubated for 24 h in a dark dew room at 22° C. and 100% relative humidity then transferred to a growth room at 23° C. for disease to develop. Disease severity was assessed on the sprayed leaves.

[1] = 24 h, 1 Day Protectant, read-out: PUCCRT 1DP disease control rating
[2] = 72 h, 3 Day Curative, read-out: PUCCRT 3DC disease control rating
[3] = 24 h, 1 Day Protectant, read-out: SEPTTR 1DP disease control rating
[4] = 72 h, 3 Day Curative, read-out: SEPTTR 3DC disease control rating
[5] = 24 h, 1 Day Protectant, read-out: PHAKPA 1DP disease control rating
[6] = 72 h, 3 Day Curative, read-out: PHAKPA 3DC disease control rating

Row | SMILES | pest or weed control at 121.5 g/ha (Puccinia triticina; [1]) [%] | pest or weed control at 121.5 g/ha (Puccinia triticina; [2]) [%] | pest or weed control at 121.5 g/ha (Zymoseptoria tritici; [3]) [%] | pest or weed control at 121.5 g/ha (Zymoseptoria tritici; [4]) [%] | pest or weed control at 25 ppm (Phakopsora pachyrhizi; [5]) [%] | pest or weed control at 25 ppm (Phakopsora pachyrhizi; [6]) [%]
1 | COc1ccnc(C(=O)N[C@@H](C)C(=O)O[C@@H](C)[C@H](Sc2ccccc2)c2ccc(C)cc2)c1OC(C)=O [Compound 77] | > 80 | ≤ 80 | > 80 | ≤ 80 | ≤ 80 | ≤ 80
2 | COc1ccnc(C(=O)N[C@@H](C)C(=O)O[C@@H](C)[C@H](Sc2ccccc2)c2ccc(F)cc2C)c1OC(C)=O [Compound 78] | ≤ 80 | ≤ 0 | > 80 | > 80 | ≤ 80 | ≤ 0
3 | COc1ccnc(C(=O)N[C@@H](C)C(=O)O[C@@H](C)[C@H](Sc2ccccc2)c2ccccc2)c1OCOC(=O)C(C)C [Compound 79] | > 80 | ≤ 80 | > 80 | > 80 | ≤ 80 | ≤ 80
4 | COc1ccnc(C(=O)N[C@@H](C)C(=O)O[C@@H](C)[C@H](Sc2ccccc2)c2ccccc2)c1OCOC(C)=O [Compound 80] | > 80 | ≤ 80 | ≤ 80 | ≤ 80 | ≤ 80 | ≤ 80
5 | COc1ccnc(C(=O)N[C@@H](C)C(=O)O[C@@H](C)[C@H](Sc2ccccc2)c2ccccc2)c1OC(=O)C(C)C [Compound 81] | ≤ 80 | ≤ 80 | ≤ 80 | ≤ 80 | ≤ 80 | ≤ 80
6 | COc1ccnc(C(=O)N[C@@H](C)C(=O)O[C@@H](C)[C@H](Sc2ccccc2)c2ccccc2)c1OC(C)=O [Compound 82] | > 80 | ≤ 80 | ≤ 80 | ≤ 80 | ≤ 80 | ≤ 80
7 | COc1cc(F)ccc1[C@@H](Sc1ccccc1)[C@H](C)OC(=O)[C@H](C)NC(=O)c1nccc(OC)c1OC(C)=O [Compound 84] | ≤ 80 | ≤ 80 | > 80 | ≤ 0 | ≤ 80 | ≤ 0
8 | COc1ccnc(C(=S)N[C@@H](C)C(=O)O[C@@H](C)[C@H](Sc2ccccc2)c2ccc(F)cc2)c1OC(C)=O [Compound 85] | ≤ 80 | ≤ 0 | ≤ 80 | ≤ 0 | ≤ 80 | ≤ 0
